What is called EC50 is the concentration at which the effect is half-maximal. As a reminder, the IC50 is the concentration needed to halve the response being measured.

In one assay the target is T1, recombinant human sEH (Homo sapiens, UniProt P34913).
T1 construct: Human sEH full length protein was purified as described by Lukin et al; made in house; host or cells: E. coli BL21 (DE3)
T1 sequence (P34913 1-555): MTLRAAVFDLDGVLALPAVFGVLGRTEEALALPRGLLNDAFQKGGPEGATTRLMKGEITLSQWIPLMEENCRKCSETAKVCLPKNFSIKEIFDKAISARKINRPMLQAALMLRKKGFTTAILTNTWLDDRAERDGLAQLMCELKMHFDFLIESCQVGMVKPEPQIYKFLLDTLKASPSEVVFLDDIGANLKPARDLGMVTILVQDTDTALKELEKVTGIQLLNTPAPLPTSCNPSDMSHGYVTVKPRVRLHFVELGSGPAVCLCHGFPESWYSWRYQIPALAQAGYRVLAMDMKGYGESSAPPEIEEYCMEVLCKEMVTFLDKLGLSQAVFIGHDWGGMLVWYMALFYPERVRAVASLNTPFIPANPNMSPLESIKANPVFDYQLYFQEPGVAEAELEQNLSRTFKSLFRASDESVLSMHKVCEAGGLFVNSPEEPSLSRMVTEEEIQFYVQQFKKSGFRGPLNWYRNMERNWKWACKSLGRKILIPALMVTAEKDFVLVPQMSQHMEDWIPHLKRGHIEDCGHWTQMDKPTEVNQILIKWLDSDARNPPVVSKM
In words: sEH activity assay with PHOME as fluorogenic substrate. It counts as biochemical. The following applies: mean±S.E.M., n=3.

The target in another assay is T2, full-length human FXR (Homo sapiens, UniProt Q96RI1).
T2 construct: coding for the full‐length human nuclear receptors FXR and RXRα; expressed in transfected cells; host or cells: HeLa
T2 sequence (Q96RI1 1-486): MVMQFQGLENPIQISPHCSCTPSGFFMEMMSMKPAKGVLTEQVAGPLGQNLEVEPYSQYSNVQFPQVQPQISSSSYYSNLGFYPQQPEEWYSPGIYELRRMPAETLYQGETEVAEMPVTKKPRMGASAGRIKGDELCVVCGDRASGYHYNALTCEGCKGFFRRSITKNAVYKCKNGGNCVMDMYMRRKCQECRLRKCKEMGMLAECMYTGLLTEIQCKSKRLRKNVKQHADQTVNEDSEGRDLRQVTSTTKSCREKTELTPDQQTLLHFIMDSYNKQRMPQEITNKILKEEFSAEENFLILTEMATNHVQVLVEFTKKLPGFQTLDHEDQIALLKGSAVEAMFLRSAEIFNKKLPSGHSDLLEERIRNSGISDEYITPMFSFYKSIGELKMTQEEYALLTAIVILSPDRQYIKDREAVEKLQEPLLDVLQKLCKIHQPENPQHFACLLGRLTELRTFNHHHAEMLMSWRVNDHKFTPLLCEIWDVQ
T2 sequence (P19793 1-462 partner): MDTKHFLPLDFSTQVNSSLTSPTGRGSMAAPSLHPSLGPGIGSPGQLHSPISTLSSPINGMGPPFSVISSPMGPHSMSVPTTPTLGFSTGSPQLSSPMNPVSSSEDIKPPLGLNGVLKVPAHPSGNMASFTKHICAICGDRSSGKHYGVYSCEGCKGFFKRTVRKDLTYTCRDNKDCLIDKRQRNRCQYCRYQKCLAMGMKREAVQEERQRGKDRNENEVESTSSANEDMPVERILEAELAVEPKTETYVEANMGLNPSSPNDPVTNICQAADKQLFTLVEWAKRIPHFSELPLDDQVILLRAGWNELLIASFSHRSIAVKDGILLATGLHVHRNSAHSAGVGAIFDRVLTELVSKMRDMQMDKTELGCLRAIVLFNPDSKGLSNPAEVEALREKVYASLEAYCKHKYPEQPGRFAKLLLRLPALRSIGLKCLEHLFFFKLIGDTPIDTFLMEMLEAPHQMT
The settings on record: mean±S.E.M., n≥3, previously reported, cited from earlier work.

Take `O=C(O)c1cccc(NC(=O)c2ccc(OCCCc3ccccc3)cc2)c1` [compound 8]: the sEH inhibition at recombinant human sEH (at 100 μM) is 6±1 % inhibition at 100 μM. Besides, the “FXR efficacy (maximum FXR activation relative to 3 μM GW4064)” value at full-length human FXR (3 μM GW4064 = 100 % activation) is reported as 22±1%. In addition, on full-length human FXR (full-length FXR reporter gene assay, BSEP promoter, HeLa), the EC50 is 0.029 ± 0.006 µM.
In the case of `O=C(O)c1ccnc(NC(=O)c2ccc(OCCCc3ccccc3)cc2)c1` [compound 19, 2‐(4‐(3‐Phenylpropoxy)benzamido)isonicotinic acid], at recombinant human sEH (read-out: sEH inhibition IC50), the IC50 is 68 µM.
